Tests used:
[1] = molecular target: T1, recombinant human IL17a (binding to its receptor IL17R) (Homo sapiens, UniProt Q16552); assay: IL-17 competition ELISA I (IL17a coated, IL17R/Fc binding)
T1 construct: purchased R&D Systems 317-ILB (IL17a); 177-IR (IL17R/Fc)
T1 sequence (Q16552 20-155 limits assumed): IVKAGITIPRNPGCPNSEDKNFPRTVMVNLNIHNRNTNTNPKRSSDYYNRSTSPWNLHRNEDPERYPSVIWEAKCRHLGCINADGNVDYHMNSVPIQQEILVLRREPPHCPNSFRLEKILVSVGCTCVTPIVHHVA
Protocol: ELISA I: The ability of the compounds to block binding of IL17a to its receptor, IL17R, was analyzed in a competition ELISA format. High binding 96-well plates (Costar #9018) were coated with 20 nM of recombinant human IL17a (R&D Systems #317-ILB) in PBS (0.64 μg/mL), 100 μL/well, for 30 min at 37′C followed by 5 min at 4′C. Plates were then washed in PBST (PBS/0.05% Tween-20) on a plate washer, (Biotech EL-450) blocked with protein-free blocking buffer (Thermo Scientific #37573) in 250 μL/well for 30 min on shaker at room temperature, and then washed again. Compound dilutions prepared in PBST were added into the wells in duplicates followed by the addition of IL17R/Fc (R&D Systems #177-IR) at a final concentration of 12 nM. Plates were then incubated for 30 min at room temperature on the shaker. Wells with no compound served as a positive “no competitor” control, while wells with no IL17R/Fc and no compound served as a blank negative control. After an additional PBST wash, 50 ng/mL HRP-conjugated goat anti-human Fc IgG (KPL #04-10-20) was added to the plate for 30 min at room temperature, followed by PBST wash and addition of SureBlue™ TMB (KPL #52-00-03). After the sufficient color development, the reaction was fixed by the addition of 100 μL/well 0.5 N HCl and absorbance was measured at 450 nm on Biotek plate reader.
Data were processed using BioAssay Enterprise v10.1.4 (CambridgeSoft) software. Linear OD λ450 were plotted against log concentration (x) and fitted to a 4-parameter logistic equation. IC50 was calculated using positive ‘no competitor’ control data as an upper limit and blank control as a lower limit in each assay.

[2] = molecular target: T2, biotinylated human IL-17 (binding to IL17R/Fc) (Homo sapiens, UniProt Q16552); assay: IL-17 competition ELISA II (captured IL17R/Fc, biotinylated IL-17)
T2 construct: purchased R&D Systems 317-ILB (IL-17, biotinylated); 177-IR (IL17R/Fc)
T2 sequence (Q16552 20-155 limits assumed): T1 sequence (Q16552 20-155 limits assumed)
In short: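 Competition read-out: absorbance at 450 nm after streptavidin-HRP/TMB detection, fitted to a 4-parameter logistic model bounded by no-competitor and blank wells to give IC50. Compound was serially diluted 5-fold from 1 μM alongside 20 nM (stock) biotinylated IL-17 on IL17R/Fc (10 nM) captured via goat anti-human IgG, 30 min at room temperature.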

SMILES | IC50 [1] [nM] | IC50 [2] [nM]
O=C1CC2(CCCC2)CC(=O)N[C@H](Cc2ccc(NC(=O)[C@H](Cc3ccccc3Cl)NC(=O)Cc3ccccc3)cc2)C(=O)NCCCCCCCCN1 [Compound 259] | 100 to 1000 | < 100
CN1CCCCCNC(=O)CNC(=O)[C@@H](Cc2ccc(NC(=O)[C@H](Cc3ccccc3Cl)NC(=O)Cc3ccccc3)cc2)NC(=O)CC2(CCCC2)CC1=O [Compound 280] | < 100 | < 100
O=C1CC2(CCCC2)CC(=O)N[C@H](Cc2ccc(NC(=O)[C@H](Cc3ccccc3Cl)NC(=O)Cc3ccccc3)cc2)C(=O)NCCOCCOCCN1 [Compound 292] | 100 to 1000 | < 100
CC(C)C[C@H](NC(=O)Cc1ccccc1)C(=O)Nc1ccc(C[C@H]2NC(=O)CC3(CCCC3)CC(=O)NCCCCCNC(=O)CNC2=O)cc1 [Compound 310] | 100 to 1000 | < 100
CC[C@H](C)[C@H](NC(=O)Cc1ccccc1)C(=O)Nc1ccc(C[C@H]2NC(=O)CC3(CCCC3)CC(=O)NCCCCCNC(=O)CNC2=O)cc1 [Compound 311] | 100 to 1000 | < 100
CCCC[C@H](NC(=O)Cc1ccccc1)C(=O)Nc1ccc(C[C@H]2NC(=O)CC3(CCCC3)CC(=O)NCCCCCNC(=O)CNC2=O)cc1 [Compound 312] | 100 to 1000 | < 100
CC(C)[C@H](NC(=O)Cc1ccccc1)C(=O)Nc1ccc(C[C@H]2NC(=O)CC3(CCCC3)CC(=O)NCCCCCNC(=O)CNC2=O)cc1 [Compound 313] | 100 to 1000 | < 100
O=C1CNC(=O)[C@@H](Cc2ccc(NC(=O)[C@H](Cc3ccccc3Cl)NC(=O)Cc3c(F)cc(F)cc3F)cc2)NC(=O)CC2(CCCC2)CC(=O)NCCCCCN1 [Compound 325] | < 100 | < 100
O=C1CC2(CCCC2)CC(=O)N[C@H](Cc2ccc(NC(=O)[C@@H](NC(=O)Cc3ccccc3)C3CCCCC3)cc2)C(=O)NCCOCCOCCN1 [Compound 333] | 100 to 1000 | < 100
CN1CCCCCNC(=O)CC2(CCCC2)CC(=O)N[C@H](Cc2ccc(NC(=O)[C@@H](NC(=O)Cc3ccccc3)C3CCCCC3)cc2)C(=O)NCC1=O [Compound 335] | 100 to 1000 | < 100
O=C1CC2(CCCC2)CC(=O)N[C@H](Cc2ccc(NC(=O)[C@@H](NC(=O)Cc3ccc(CO)cc3)C3CCCCC3)cc2)C(=O)NCCOCCOCCN1 [Compound 344] | 1000 to 10000 | 100 to 1000
O=C1CC2(CCCC2)CC(=O)N[C@H](Cc2ccc(NC(=O)[C@H](Cc3ccccc3Cl)NC(=O)Cc3ccccc3)cc2)C(=O)NCCCCCCN1 [Compound 345] | 100 to 1000 | < 100
O=C1CC2(CCCC2)CC(=O)N[C@H](Cc2ccc(NC(=O)[C@@H](NC(=O)Cc3ccccc3)C3CCCCC3)cc2)C(=O)NCCCCCCN1 [Compound 346] | 1000 to 10000 | < 100
O=C1CC2(CCCC2)CC(=O)N[C@H](Cc2ccc(NC(=O)[C@H](Cc3ccccc3Cl)NC(=O)Cc3ccccc3)cc2)C(=O)NCCCCCCCN1 [Compound 347] | 100 to 1000 | < 100
O=C1CC2(CCCC2)CC(=O)N[C@H](Cc2ccc(NC(=O)[C@@H](NC(=O)Cc3ccccc3)C3CCCCC3)cc2)C(=O)NCCCCCCCN1 [Compound 348] | 1000 to 10000 | 100 to 1000
O=C1CC2(CCCC2)CC(=O)N[C@H](Cc2ccc(NC(=O)[C@H](Cc3ccccc3Cl)NC(=O)Cc3ccccc3)cc2)C(=O)NCCCCCCCCCN1 [Compound 349] | 1000 to 10000 | < 100
O=C1CC2(CCCC2)CC(=O)N[C@H](Cc2ccc(NC(=O)[C@H](Cc3ccccc3Cl)NC(=O)Cc3ccc(CO)cc3)cc2)C(=O)NCCCCCCN1 [Compound 354] | 100 to 1000 | < 100
O=C1CC2(CCCC2)CC(=O)N[C@H](Cc2ccc(NC(=O)[C@@H](NC(=O)Cc3ccc(CO)cc3)C3CCCCC3)cc2)C(=O)NCCCCCCN1 [Compound 355] | 1000 to 10000 | < 100

SMILES | IC50 [1] [nM] | IC50 [2] [nM]
O=C1CC2(CCCC2)CC(=O)N[C@H](Cc2ccc(NC(=O)[C@H](Cc3ccccc3Cl)NC(=O)Cc3ccc(CO)cc3)cc2)C(=O)NCCCCCCCN1 [Compound 356] | 100 to 1000 | < 100
O=C1CC2(CCCC2)CC(=O)N[C@H](Cc2ccc(NC(=O)[C@@H](NC(=O)Cc3ccc(CO)cc3)C3CCCCC3)cc2)C(=O)NCCCCCCCN1 [Compound 357] | 100 to 1000 | < 100
O=C1CC2(CCCC2)CC(=O)N[C@H](Cc2ccc(NC(=O)[C@H](Cc3ccccc3Cl)NC(=O)Cc3ccc(CO)cc3)cc2)C(=O)NCCCCCCCCCN1 [Compound 358] | 100 to 1000 | < 100
O=C1CC2(CCCC2)CC(=O)N[C@H](Cc2ccc(NC(=O)[C@@H](NC(=O)Cc3ccc(CO)cc3)C3CCCCC3)cc2)C(=O)NCCCCCCCCCN1 [Compound 359] | 1000 to 10000 | < 100
C[C@H]1NC(=O)[C@@H](Cc2ccc(NC(=O)[C@@H](NC(=O)Cc3ccc(CO)cc3)C3CCCCC3)cc2)NC(=O)CC2(CCCC2)CC(=O)NCCCCCNC1=O [Compound 360] | 100 to 1000 | < 100
O=C1CNC(=O)[C@@H](Cc2ccc(NC(=O)[C@@H](NC(=O)c3cccnc3)C3CCCCC3)cc2)NC(=O)CC2(CCCC2)CC(=O)NCCCCCN1 [Compound 362] | 1000 to 10000 | 100 to 1000
O=C1CC2(CCCC2)CC(=O)N[C@H](Cc2ccc(NC(=O)[C@H](Cc3ccccc3Cl)NC(=O)Cc3ccc(CO)cc3)cc2)C(=O)NC/C=C/CCCCN1 [Compound 364] | 100 to 1000 | < 100
C[C@H]1NC(=O)[C@@H](Cc2ccc(NC(=O)[C@@H](NC(=O)c3cccnc3)C3CCCCC3)cc2)NC(=O)CC2(CCCC2)CC(=O)N[C@H](C(=O)O)CCCCNC1=O [Compound 370] | 100 to 1000 | < 100
CN1CCCCCCCCN(C)C(=O)[C@@H](Cc2ccc(N(C)C(=O)[C@H](Cc3ccccc3Cl)N(C)C(=O)c3ccccc3)cc2)N(C)C(=O)CC2(CCCC2)CC1=O [Compound 372] | 1000 to 10000 | 100 to 1000
O=C1CNC(=O)[C@@H](Cc2ccc(NC(=O)[C@@H](NC(=O)Cc3ccc(F)c(F)c3)C3CCCCC3)cc2)NC(=O)CC2(CCCC2)CC(=O)NCCCCCN1 [Compound 373] | < 100 | < 100
O=C1CNC(=O)[C@@H](Cc2ccc(NC(=O)[C@@H](NC(=O)Cc3ccc(F)cc3F)C3CCCCC3)cc2)NC(=O)CC2(CCCC2)CC(=O)NCCCCCN1 [Compound 374] | < 100 | < 100
O=C1CNC(=O)[C@@H](Cc2ccc(NC(=O)[C@@H](NC(=O)Cc3ccc(CO)cc3)C3CCCCC3)cc2)NC(=O)CC2(CCCC2)CC(=O)NCCCCCN1 [Compound 375] | 100 to 1000 | < 100
O=C1CNC(=O)[C@@H](Cc2ccc(NC(=O)[C@@H](NC(=O)c3cccc(O)c3)C3CCCCC3)cc2)NC(=O)CC2(CCCC2)CC(=O)NCCCCCN1 [Compound 376] | 100 to 1000 | < 100
CC(=O)N[C@H](C(=O)Nc1ccc(C[C@H]2NC(=O)CC3(CCCC3)CC(=O)NCCCCCNC(=O)CNC2=O)cc1)C1CCCCC1 [Compound 377] | < 100 | 100 to 1000
O=C1CNC(=O)[C@@H](Cc2ccc(NC(=O)[C@@H](NC(=O)c3ccccc3)C3CCCCC3)cc2)NC(=O)CC2(CCCC2)CC(=O)NCCCCCN1 [Compound 379] | 1000 to 10000 | < 100
O=C1CNC(=O)[C@@H](Cc2ccc(NC(=O)[C@@H](NC(=O)Cc3ccccn3)C3CCCCC3)cc2)NC(=O)CC2(CCCC2)CC(=O)NCCCCCN1 [Compound 381] | 100 to 1000 | < 100
O=C1CNC(=O)[C@@H](Cc2ccc(NC(=O)[C@@H](NC(=O)c3cccc(F)c3)C3CCCCC3)cc2)NC(=O)CC2(CCCC2)CC(=O)NCCCCCN1 [Compound 382] | 100 to 1000 | < 100
O=C1CNC(=O)[C@@H](Cc2ccc(NC(=O)[C@@H](NC(=O)c3cccnc3)C3CCCCC3)cc2)NC(=O)CC2(CCCC2)CC(=O)N[C@H](C(=O)O)CCCCN1 [Compound 384] | 100 to 1000 | < 100
